Measurements from ChEMBL document CHEMBL4627246, “Pyroglutamide-Based P2X7 Receptor Antagonists Targeting Inflammatory Bowel Disease” (J Med Chem, 2020).

Columns and labels:
Type in all cases: cell-based
K562 = experiment: Cytotoxicity against human K562 cells assessed as effect on cell growth at 10 uM incubated for 48 hrs by sulforhodamine B assay; details: k562, 48 h
HOP-62 = experiment: Cytotoxicity against human HOP62 cells assessed as effect on cell growth at 10 uM incubated for 48 hrs by sulforhodamine B assay; details: hop-62, 48 h
NCI-H522 = experiment: Cytotoxicity against human NCI-H522 cells assessed as effect on cell growth at 10 uM incubated for 48 hrs by sulforhodamine B assay; details: nci-h522, 48 h
Hs-578T = experiment: Cytotoxicity against human Hs 578T cells assessed as effect on cell growth at 10 uM incubated for 48 hrs by sulforhodamine B assay
SR = experiment: Cytotoxicity against human SR cells assessed as effect on cell growth at 10 uM incubated for 48 hrs by sulforhodamine B assay
UACC-257 = experiment: Cytotoxicity against human UACC257 cells assessed as effect on cell growth at 10 uM incubated for 48 hrs by sulforhodamine B assay; details: uacc-257, 48 h
EKVX = experiment: Cytotoxicity against human EKVX cells assessed as effect on cell growth at 10 uM incubated for 48 hrs by sulforhodamine B assay
SK-OV-3 = experiment: Cytotoxicity against human SKOV3 cells assessed as effect on cell growth at 10 uM incubated for 48 hrs by sulforhodamine B assay; details: sk-ov-3, 48 h
NCI/ADR-RES = experiment: Cytotoxicity against human NCI/ADR-RES cells assessed as effect on cell growth at 10 uM incubated for 48 hrs by sulforhodamine B assay
SK-MEL-5 = experiment: Cytotoxicity against human SK-MEL-5 cells assessed as effect on cell growth at 10 uM incubated for 48 hrs by sulforhodamine B assay; details: sk-mel-5, 48 h
KM12 = experiment: Cytotoxicity against human KM12 cells assessed as effect on cell growth at 10 uM incubated for 48 hrs by sulforhodamine B assay; details: km12, 48 h
SK-MEL-28 = experiment: Cytotoxicity against human SK-MEL-28 cells assessed as effect on cell growth at 10 uM incubated for 48 hrs by sulforhodamine B assay; details: sk-mel-28, 48 h
COLO 205 = experiment: Cytotoxicity against human COLO205 cells assessed as effect on cell growth at 10 uM incubated for 48 hrs by sulforhodamine B assay; details: colo 205, 48 h
BT-549 = experiment: Cytotoxicity against human BT549 cells assessed as effect on cell growth at 10 uM incubated for 48 hrs by sulforhodamine B assay; details: bt-549, 48 h
NCI-H226 = experiment: Cytotoxicity against human NCI-H226 cells assessed as effect on cell growth at 10 uM incubated for 48 hrs by sulforhodamine B assay; details: nci-h226, 48 h
SN12C = experiment: Cytotoxicity against human SN12C cells assessed as effect on cell growth at 10 uM incubated for 48 hrs by sulforhodamine B assay
SF-295 = experiment: Cytotoxicity against human SF295 cells assessed as effect on cell growth at 10 uM incubated for 48 hrs by sulforhodamine B assay; details: sf-295, 48 h
NCI-H460 = experiment: Cytotoxicity against human NCI-H460 cells assessed as effect on cell growth at 10 uM incubated for 48 hrs by sulforhodamine B assay; details: nci-h460, 48 h
LOX IMVI = experiment: Cytotoxicity against human LOXIMVI cells assessed as effect on cell growth at 10 uM incubated for 48 hrs by sulforhodamine B assay
A549 = experiment: Cytotoxicity against human A549/ATCC cells assessed as effect on cell growth at 10 uM incubated for 48 hrs by sulforhodamine B assay; details: a549, 48 h

Measured: Activity

COc1ccc(CN2C(=O)[C@@H]3C/C(=C\N(C)C)C(=O)N3C2N(C)C)c(OC)c1 (stereo not given in full)
Non-Toxic: K562 | HOP-62 | NCI-H522 | Hs-578T | SR | UACC-257 | EKVX | SK-OV-3 | NCI/ADR-RES | SK-MEL-5 | KM12 | SK-MEL-28 | COLO 205 | BT-549 | NCI-H226 | SN12C | SF-295 | NCI-H460 | LOX IMVI | A549

O=C(NCc1ccc(Cl)cc1Cl)[C@@H]1CCC(=O)N1c1nccs1
Non-Toxic: K562 | HOP-62 | NCI-H522 | Hs-578T | SR | UACC-257 | EKVX | SK-OV-3 | NCI/ADR-RES | SK-MEL-5 | KM12 | SK-MEL-28 | COLO 205 | BT-549 | NCI-H226 | SN12C | SF-295 | NCI-H460 | LOX IMVI | A549

CN(C)/C=C1\C[C@H]2C(=O)N(Cc3ccccc3Cl)C(N(C)C)N2C1=O (stereo not given in full)
Non-Toxic: K562 | HOP-62 | NCI-H522 | Hs-578T | SR | UACC-257 | EKVX | SK-OV-3 | NCI/ADR-RES | SK-MEL-5 | KM12 | SK-MEL-28 | COLO 205 | BT-549 | NCI-H226 | SN12C | SF-295 | NCI-H460 | LOX IMVI | A549

CN1C(=O)CC[C@H]1C(=O)NCc1cc(C(F)(F)F)ccc1Cl
Non-Toxic: K562 | HOP-62 | NCI-H522 | Hs-578T | SR | UACC-257 | EKVX | SK-OV-3 | NCI/ADR-RES | SK-MEL-5 | KM12 | SK-MEL-28 | COLO 205 | BT-549 | NCI-H226 | SN12C | SF-295 | NCI-H460 | LOX IMVI | A549

COc1ccc(N2C(=O)[C@@H]3C/C(=C\N(C)C)C(=O)N3C2N(C)C)cc1 (stereo not given in full)
Non-Toxic: K562 | HOP-62 | NCI-H522 | Hs-578T | SR | UACC-257 | EKVX | SK-OV-3 | NCI/ADR-RES | SK-MEL-5 | KM12 | SK-MEL-28 | COLO 205 | BT-549 | NCI-H226 | SN12C | SF-295 | NCI-H460 | LOX IMVI | A549

O=C(NCc1ccc(Cl)cc1Cl)[C@@H]1CCC(=O)N1c1ccsc1
Non-Toxic: K562 | HOP-62 | NCI-H522 | Hs-578T | SR | UACC-257 | EKVX | SK-OV-3 | NCI/ADR-RES | SK-MEL-5 | KM12 | SK-MEL-28 | COLO 205 | BT-549 | NCI-H226 | SN12C | SF-295 | NCI-H460 | LOX IMVI | A549

COc1ccc(NC(=O)[C@@H]2CCC(=O)N2)cc1OC
Non-Toxic: K562 | HOP-62 | NCI-H522 | Hs-578T | SR | UACC-257 | EKVX | SK-OV-3 | NCI/ADR-RES | SK-MEL-5 | KM12 | SK-MEL-28 | COLO 205 | BT-549 | NCI-H226 | SN12C | SF-295 | NCI-H460 | LOX IMVI | A549

COc1ccccc1CN1C(=O)[C@@H]2C/C(=C\N(C)C)C(=O)N2C1N(C)C (stereo not given in full)
Non-Toxic: K562 | HOP-62 | NCI-H522 | Hs-578T | SR | UACC-257 | EKVX | SK-OV-3 | NCI/ADR-RES | SK-MEL-5 | KM12 | SK-MEL-28 | COLO 205 | BT-549 | NCI-H226 | SN12C | SF-295 | NCI-H460 | LOX IMVI | A549

O=C(NCc1ccccc1Cl)[C@@H]1CCC(=O)N1Cc1ccccc1
Non-Toxic: K562 | HOP-62 | NCI-H522 | Hs-578T | SR | UACC-257 | EKVX | SK-OV-3 | NCI/ADR-RES | SK-MEL-5 | KM12 | SK-MEL-28 | COLO 205 | BT-549 | NCI-H226 | SN12C | SF-295 | NCI-H460 | LOX IMVI | A549
